Results: patent US20260041649A1, “ANTI-INFLAMMATORY AGENT” (WATANABE OYSTER LABORATORY, CO., LTD., priority 2023, published 2026)

Test system: mouse macrophage RAW264.7 cells
Assay: Western blotting of caspase-3 and cleaved caspase-3
Assay type: cell-based
Settings: DHMBA 10 μM, 3 days
Method: FIG. 4 is an explanatory diagram describing that the marine factor 3,5-dihydroxy-4-methoxy benzyl alcohol (DHMBA) stimulates cell death in mouse macrophage RAW264.7 cells. RAW264.7 cells (1×10^5 cells/ml/well in a 24-well plate) were cultured in DMEM containing 10% FBS, 1% P/S, and 1% fungizone for 3 days until they reached subconfluence. The cells were cultured for another 24 hours (FIG. 4A) or 48 hours (FIG. 4B) in the control group (1% ethanol; 0 μM DHMBA as final concentration) and in the DHMBA-treated group (0.1, 1, 10, 100, or 1000 μM). […] After the culture, the number of cells attached to the dish was counted. […]
RAW264.7 cells (1×10^6 cells/10 ml of 100 mm dish) were cultured for 3 days in 10% FBS, 1% P/S (1% ethanol), or in the DHMBA-treated group (10 μM). […] Protein concentrations in the supernatants were measured using Bio-Rad Protein Assay Dye (Bio-Rad Laboratories, Inc., Hercules, CA, USA) with bovine serum albumin as a standard. […] After incubation, the membranes were further incubated with horseradish peroxidase-conjugated secondary antibodies (Santa Cruz Biotechnology Inc., cat. no. sc-2005 (mouse) or sc-2305 (rabbit); dilution 1:2000) for 60 min at room temperature, and protein bands were detected using chemiluminescence substrates (cat. no. 34577, Thermo Fisher Scientific Inc., Rockford, IL, USA) on X-ray films. […]

## COc1c(O)cc(CO)cc1O [DHMBA, 3,5-dihydroxy-4-methoxybenzyl alcohol]
  level of caspase-3: increased
  level of cleaved caspase-3: increased
